According to PMC3745005 (Journal of biomolecular screening, 2012):

Target: PDE4A (catalytic domain of PDE4A10) (Homo sapiens, UniProt P27815)
Assay: enthalpy array nanocalorimetry, cAMP hydrolysis
Format: biochemical

Chain of PDE4A (catalytic domain of PDE4A10) (P27815 351-683): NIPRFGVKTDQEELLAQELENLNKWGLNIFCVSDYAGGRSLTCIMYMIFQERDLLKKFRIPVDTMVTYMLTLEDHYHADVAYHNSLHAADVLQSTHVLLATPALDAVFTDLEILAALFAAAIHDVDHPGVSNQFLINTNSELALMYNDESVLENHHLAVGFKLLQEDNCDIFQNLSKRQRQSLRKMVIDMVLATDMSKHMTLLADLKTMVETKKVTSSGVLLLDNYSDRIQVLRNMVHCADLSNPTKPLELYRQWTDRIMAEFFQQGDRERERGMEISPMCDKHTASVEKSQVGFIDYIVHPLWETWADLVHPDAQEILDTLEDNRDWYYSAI

Ki: 8.3 ± 1.5 µM
SMILES: CC(C)Cn1c(=O)n(C)c(=O)c2[nH]cnc21 [IBMX]
